What follows are molecules tested against T1, β-glucocerebrosidase, p.L444P mutation (GM08760A fibroblasts) (Homo sapiens, UniProt P04062, L483P) (assay: Enhancement of β-glucocerebrosidase activity measured in Gaucher disease fibroblasts (L444P)). Conditions: commercially available compounds; increase in enzyme activity vs non-treated cells; GBA fibroblasts bearing L444P; 6-50 μM; 4 days.
T1 construct: host or cells: human Gaucher patient fibroblasts GM08760A, homozygous L444P
T1 sequence (P04062 40-536 L483P): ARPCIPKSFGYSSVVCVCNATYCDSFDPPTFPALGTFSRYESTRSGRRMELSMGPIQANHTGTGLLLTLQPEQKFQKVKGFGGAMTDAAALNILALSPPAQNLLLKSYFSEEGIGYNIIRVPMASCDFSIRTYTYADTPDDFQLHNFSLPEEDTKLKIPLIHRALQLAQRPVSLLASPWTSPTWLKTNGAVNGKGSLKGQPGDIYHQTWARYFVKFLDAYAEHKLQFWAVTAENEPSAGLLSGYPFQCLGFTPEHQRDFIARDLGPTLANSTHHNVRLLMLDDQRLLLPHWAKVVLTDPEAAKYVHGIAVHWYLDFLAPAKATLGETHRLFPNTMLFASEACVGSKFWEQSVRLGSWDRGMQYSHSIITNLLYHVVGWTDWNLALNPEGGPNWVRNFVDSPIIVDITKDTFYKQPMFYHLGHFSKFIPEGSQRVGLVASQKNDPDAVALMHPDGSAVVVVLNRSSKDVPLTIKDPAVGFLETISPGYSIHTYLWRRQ
Type: cell-based
Description: Enhancement of β-Glucocerebrosidase Activity Measured in Gaucher Disease Fibroblasts Materials
Human fibroblasts from a patient with Gaucher disease homozygous for p.L444P mutation (GM08760A) were purchased from Coriell Institute for Medical Research (Camden, N.J., USA).
Fibroblasts were seeded at 5×10^3 cells per well in 96-well cell culture plates (Corning, N.Y., USA) in Dulbecco's Modified Eagle's Media (DMEM) supplemented with 10% of fetal bovine serum (FBS), 1% penicillin/streptomycin (P/S) (Thermo Fisher Scientific, Waltham, Mass., USA) and grown at 37° C., 5% CO2 overnight for cell attachment. Subsequently, cells were incubated in the absence or presence of the compounds at the desired concentration for 4 days. After incubation, cells were washed twice with phosphate-buffered saline (PBS) and enzyme activity assay was performed.
β-glucocerebrosidase activity in intact cultured cells was measured by using 4-methylumbelliferyl-β-D-glucopyranoside substrate (Apollo Scientific, UK). Briefly, cells were incubated with 4-MU-β-D-glucopyranoside in 0.1 M acetate buffer pH=4 at 37° C. for 1 hour. […] The liberated 4-MU was measured on a GloMax Discover plate reader (Promega, Madison, Wis., USA) with and excitation at 340 nm and emission at 460 nm. Enzyme activities were expressed in treated cells as X-fold increase in comparison with non-treated cells (X=1 represents no enhancement).
The capacity of the compounds of the disclosure to produce an increase in enzyme activity in GBA fibroblasts bearing L444P at concentrations between 6 and 50 μM is denoted as follows:
The following compounds listed in Table 2 were purchased (from Enamine, Princeton, Asinex, Vistas-M, and OSSK_541352) and tested in the assay as described above.

SMILES	Activity L444P
COc1cccc(N2CCN(Cc3nc(N)nc(Nc4ccc(C)cc4)n3)CC2)c1 [6-((4-(3-methoxyphenyl)piperazin-1-yl)methyl)-N2-(p-tolyl)-1,3,5-triazine-2,4-diamine]	C (Increase in comparison with non-treated of 1.2-1.7 fold is shown as C)
Cc1ccc(Nc2nc(N)nc(CN3CCN(c4ccccc4)CC3)n2)cc1 [6-((4-phenylpiperazin-1-yl)methyl)-N2-(p-tolyl)-1,3,5-triazine-2,4-diamine]	C (Increase in comparison with non-treated of 1.2-1.7 fold is shown as C)
Cc1ccc(Nc2nc(N)nc(CN(C)CCOc3ccc(Cl)cc3)n2)cc1 [6-(((2-(4-chlorophenoxy)ethyl)(methyl)amino)methyl)-N2-(p-tolyl)-1,3,5-triazine-2,4-diamine]	C (Increase in comparison with non-treated of 1.2-1.7 fold is shown as C)
Cc1ccc(Nc2nc(N)nc(CN(C)Cc3ccco3)n2)cc1 [6-(((furan-2-ylmethyl)(methyl)amino)methyl)-N2-(p-tolyl)-1,3,5-triazine-2,4-diamine]	C (Increase in comparison with non-treated of 1.2-1.7 fold is shown as C)
Nc1nc(CN(Cc2ccc(F)cc2)C2CC2)nc(Nc2ccc(F)cc2)n1 [6-((cyclopropyl(4-fluorobenzyl)amino)methyl)-N2-(4-fluorophenyl)-1,3,5-triazine-2,4-diamine]	C (Increase in comparison with non-treated of 1.2-1.7 fold is shown as C)
Cc1ccc(CN(C)Cc2nc(N)nc(Nc3ccccc3C)n2)cc1 [6-((methyl(4-methylbenzyl)amino)methyl)-N2-(o-tolyl)-1,3,5-triazine-2,4-diamine]	C (Increase in comparison with non-treated of 1.2-1.7 fold is shown as C)
Cc1ccccc1Nc1nc(N)nc(CN(C)c2ccccc2)n1 [6-((methyl(phenyl)amino)methyl)-N2-(o-tolyl)-1,3,5-triazine-2,4-diamine]	C (Increase in comparison with non-treated of 1.2-1.7 fold is shown as C)

Same assay, conditions: increase in enzyme activity vs non-treated cells; GBA fibroblasts bearing L444P; concentrations between 6 and 50 μM; 4 days incubation

SMILES	Activity L444P
COc1ccc(Nc2nc(N)nc(CN(C)c3ccccc3)n2)cc1 [Example 2, N^2-(4-Methoxyphenyl)-6-((methyl(phenyl)amino)methyl)-1,3,5-triazine-2,4-diamine]	C (Increase in comparison with non-treated of 1.2-1.7 fold is shown as C)
CN(Cc1ccccc1)Cc1nc(N)nc(Nc2ccc(C#N)cc2)n1 [Example 11, 4-(4-Amino-6-((benzyl(methyl)amino)methyl)-1,3,5-triazin-2-ylamino)benzonitrile]	C (Increase in comparison with non-treated of 1.2-1.7 fold is shown as C)
COc1ccccc1Nc1cc(CN(C)Cc2ccccc2)nc(N)n1 [Example 15, 6-((benzyl(methyl)amino)methyl)-N^4-(2-methoxyphenyl)pyrimidine-2,4-diamine]	B (Increase in comparison with non-treated of >1.7-2.0 fold is shown as B)
COc1cccc(Nc2cc(CN(C)Cc3ccccc3)nc(N)n2)c1 [Example 17]	B (Increase in comparison with non-treated of >1.7-2.0 fold is shown as B)
CN(Cc1ccccc1)Cc1cc(Nc2ccc(Cl)cc2)nc(N)n1 [Example 21, 6-((benzyl(methyl)amino)methyl)-N^4-(4-chlorophenyl)pyrimidine-2,4-diamine]	B (Increase in comparison with non-treated of >1.7-2.0 fold is shown as B)
Cc1ccc(Nc2cc(N)nc(CN(C)Cc3ccccc3)n2)cc1 [Example 22, 2-((Benzyl(methyl)amino)methyl)-N^4-(p-tolyl)pyrimidine-4,6-diamine]	B (Increase in comparison with non-treated of >1.7-2.0 fold is shown as B)
Cc1ccc(Nc2nc(N)cc(CN(C)Cc3ccccc3)n2)cc1 [Example 23, 6-((benzyl(methyl)amino)methyl)-N^2-p-tolylpyrimidine-2,4-diamine]	B (Increase in comparison with non-treated of >1.7-2.0 fold is shown as B)
Cc1ccc(Nc2nc(N)nc(CNC3CCc4ccccc4C3)n2)cc1 (centres unmarked) [Example 27, 6-(((1,2,3,4-Tetrahydronaphthalen-2-yl)amino)methyl)-N-(p-tolyl)-1,3,5-triazine-2,4-diamine]	C (Increase in comparison with non-treated of 1.2-1.7 fold is shown as C)
CN(Cc1ccccc1)Cc1cc(Nc2cccc(C#N)c2)nc(N)n1 [Example 29, 3-(2-Amino-6-((benzyl(methyl)amino)methyl)pyrimidin-4-ylamino)benzonitrile]	B (Increase in comparison with non-treated of >1.7-2.0 fold is shown as B)
Cc1ccc(Nc2cc(CN(C)Cc3cccc(C)c3)nc(N)n2)cc1 [Example 32, 6-((Methyl(3-methylbenzyl)amino)methyl)-N^4-p-tolylpyrimidine-2,4-diamine]	C (Increase in comparison with non-treated of 1.2-1.7 fold is shown as C)
Cc1ccc(CN(C)Cc2cc(Nc3ccc(C)cc3)nc(N)n2)cc1 [Example 34, 6-((Methyl(4-methylbenzyl)amino)methyl)-N^4-p-tolylpyrimidine-2,4-diamine]	B (Increase in comparison with non-treated of >1.7-2.0 fold is shown as B)
Cc1ccc(Nc2cc(CN3CCc4ccccc4C3)nc(N)n2)cc1 [Example 35, 6-((3,4-Dihydroisoquinolin-2(1H)-yl)methyl)-N^4-p-tolylpyrimidine-2,4-diamine]	B (Increase in comparison with non-treated of >1.7-2.0 fold is shown as B)
COc1cccc(Nc2cc(CN(C)Cc3cccc(C)c3)nc(N)n2)c1 [Example 38]	B (Increase in comparison with non-treated of >1.7-2.0 fold is shown as B)
Cc1cccc(Nc2cc(CN(C)Cc3cccc(C#N)c3)nc(N)n2)c1 [Example 39, 3-((((2-Amino-6-(m-tolylamino)pyrimidin-4-yl)methyl)(methyl)amino)methyl) benzonitrile]	C (Increase in comparison with non-treated of 1.2-1.7 fold is shown as C)
CCc1ccc(CN(C)Cc2cc(Nc3cccc(OC)c3)nc(N)n2)cc1 [Example 40, 6-(((4-Ethylbenzyl)(methyl)amino)methyl)-N^4-(3-methoxyphenyl)pyrimidine-2,4-diamine]	B (Increase in comparison with non-treated of >1.7-2.0 fold is shown as B)
COCCN(Cc1ccccc1)Cc1cc(Nc2cccc(OC)c2)nc(N)n1 [Example 49, 6-((Benzyl(2-methoxyethyl)amino)methyl)-N^4-(3-methoxyphenyl)pyrimidine-2,4-diamine]	C (Increase in comparison with non-treated of 1.2-1.7 fold is shown as C)
COc1cccc(Nc2cc(CN(C)c3cccc(OC)c3)nc(N)n2)c1 [Example 51]	C (Increase in comparison with non-treated of 1.2-1.7 fold is shown as C)
COc1cccc(CN(C)Cc2cc(Nc3ccc(C)cc3)nc(N)n2)c1 [Example 53, 6-(((3-Methoxybenzyl)(methyl)amino)methyl)-N^4-p-tolylpyrimidine-2,4-diamine]	C (Increase in comparison with non-treated of 1.2-1.7 fold is shown as C)
Cc1ccc(Nc2cc(CN(C)Cc3cccc(C#N)c3)nc(N)n2)cc1 [Example 55, 3-((((2-Amino-6-(p-tolylamino)pyrimidin-4-yl)methyl)(methyl)amino)methyl)benzonitrile]	B (Increase in comparison with non-treated of >1.7-2.0 fold is shown as B)
Cc1ccc(Nc2cc(CN(C)Cc3ccc(C#N)cc3)nc(N)n2)cc1 [Example 57, 4-((((2-Amino-6-(p-tolylamino)pyrimidin-4-yl)methyl)(methyl)amino)methyl)benzonitrile]	C (Increase in comparison with non-treated of 1.2-1.7 fold is shown as C)
Cc1ccc(Nc2cc(CN(C)Cc3ccncc3)nc(N)n2)cc1 [Example 60, 6-((Methyl(pyridin-4-ylmethyl)amino)methyl)-N^4-p-tolylpyrimidine-2,4-diamine]	C (Increase in comparison with non-treated of 1.2-1.7 fold is shown as C)
Cc1ccc(Nc2cc(CN(C)Cc3cccnc3)nc(N)n2)cc1 [Example 61, 6-((Methyl(pyridin-3-ylmethyl)amino)methyl)-N^4-p-tolylpyrimidine-2,4-diamine]	C (Increase in comparison with non-treated of 1.2-1.7 fold is shown as C)

Reference: patent publication US11174242B2, “Heteroaryl compounds and their use” (Minoryx Therapeutics S.L., priority 2016, dated 2021)
